≈ marks a conversion by molar mass, not a printed value.
Key:
Escherichia coli [1] = test: Antimicrobial activity against Escherichia coli expressing beta-lactamase KPC-2 by CLSI broth microdilution method; assay type: functional
Escherichia coli [2] = test: Antimicrobial activity against Escherichia coli expressing beta-lactamase NDM-1 by CLSI broth microdilution method; assay type: functional
[3] = Chemical stability in pH 7.4 potassium phosphate buffer assessed as half life for compound hydrolysis at 37 degC by UPLC and mass spectrometry; assay type: physicochemical
Escherichia coli [4] = test: microbe, parasite or virus in culture
Escherichia coli [5] = test: microbe, parasite or virus in culture; remark: listed apart in the source
Escherichia coli [6] = test: microbe, parasite or virus in culture; remark: listed apart in the source
Escherichia coli [7] = test: microbe, parasite or virus in culture; remark: listed apart in the source
Escherichia coli [8] = test: microbe, parasite or virus in culture; remark: listed apart in the source
Escherichia coli [9] = test: microbe, parasite or virus in culture; remark: listed apart in the source
Escherichia coli [10] = test: microbe, parasite or virus in culture; remark: listed apart in the source
Escherichia coli [11] = test: microbe, parasite or virus in culture; remark: listed apart in the source
Escherichia coli [12] = test: microbe, parasite or virus in culture; remark: listed apart in the source
Escherichia coli [13] = test: microbe, parasite or virus in culture; remark: listed apart in the source
Escherichia coli [14] = test: microbe, parasite or virus in culture; remark: listed apart in the source
Escherichia coli [15] = test: microbe, parasite or virus in culture; remark: listed apart in the source
Escherichia coli [16] = test: microbe, parasite or virus in culture; remark: listed apart in the source
Escherichia coli [17] = test: microbe, parasite or virus in culture; remark: listed apart in the source
Escherichia coli [18] = test: microbe, parasite or virus in culture; remark: listed apart in the source
Escherichia coli [19] = test: microbe, parasite or virus in culture; remark: listed apart in the source
Escherichia coli [20] = test: microbe, parasite or virus in culture; remark: listed apart in the source
Escherichia coli [21] = test: microbe, parasite or virus in culture; remark: listed apart in the source
Escherichia coli [22] = test: microbe, parasite or virus in culture; remark: listed apart in the source
Escherichia coli [23] = test: microbe, parasite or virus in culture; remark: listed apart in the source
Escherichia coli [24] = test: microbe, parasite or virus in culture; remark: listed apart in the source
Escherichia coli [25] = test: microbe, parasite or virus in culture; remark: listed apart in the source
Escherichia coli [26] = test: microbe, parasite or virus in culture; remark: listed apart in the source

| SMILES | MIC (Escherichia coli [1]) [µg/mL] | MIC (Escherichia coli [2]) [µg/mL] | half-life [3] [h] | MIC (Escherichia coli [4]) [µg/mL] | MIC (Escherichia coli [5]) [µg/mL] | MIC (Escherichia coli [6]) [µg/mL] | MIC (Escherichia coli [7]) [µg/mL] | MIC (Escherichia coli [8]) [µg/mL] | other results |
| --- | --- | --- | --- | --- | --- | --- | --- | --- | --- |
| CC(C)(O/N=C(\C(=O)N[C@@H]1C(=O)N(S(=O)(=O)O)[C@@H]1Cn1ccc(N)n1)c1csc(N)n1)C(=O)O (stereo in doubt) | > 64 | > 64 | 3.5 | > 64 | > 64 | > 64 | > 64 | > 64 |  |
| CC(C)(O/N=C(\C(=O)N[C@@H]1C(=O)N(S(=O)(=O)O)[C@@H]1Cn1ccnn1)c1csc(N)n1)C(=O)O (stereo in doubt) | 2 (≈ 3.98 µM) | 0.5 (≈ 0.995 µM) | 257 | 0.5 (≈ 0.995 µM) | 1 (≈ 1.99 µM) | 4 (≈ 7.96 µM) | 2 (≈ 3.98 µM) | 2 to 4 (≈ 3.98 to 7.96 µM) | MIC (Escherichia coli [10]): 8 µg/mL (≈ 15.9 µM) |
| CC(C)(O/N=C(\C(=O)N[C@@H]1C(=O)N(S(=O)(=O)O)[C@@H]1Cn1cnnc1)c1csc(N)n1)C(=O)O (stereo in doubt) | 16 (≈ 31.8 µM) | 1 (≈ 1.99 µM) | 113 | 1 (≈ 1.99 µM) | 1 (≈ 1.99 µM) | 16 (≈ 31.8 µM) | 32 (≈ 63.7 µM) | 2 (≈ 3.98 µM) |  |
| CO/N=C(\C(=O)N[C@@H]1C(=O)N2C(C(=O)[O-])=C(C[N+]3(C)CCCC3)CS[C@H]12)c1csc(N)n1 |  |  |  | ≤ 0.03 | 16 (≈ 33.3 µM) |  | 1 (≈ 2.08 µM) |  | MIC (Escherichia coli [11]): 1 µg/mL (≈ 2.08 µM); MIC (Escherichia coli [12]): 4 µg/mL (≈ 8.32 µM); MIC (Escherichia coli [13]): 4 µg/mL (≈ 8.32 µM); MIC (Escherichia coli [14]): 0.125 µg/mL (≈ 0.26 µM); MIC (Escherichia coli [15]): 1 µg/mL (≈ 2.08 µM); MIC (Escherichia coli [16]): 0.25 µg/mL (≈ 0.52 µM); MIC (Escherichia coli [17]): 0.25 µg/mL (≈ 0.52 µM); MIC (Escherichia coli [18]): 1 µg/mL (≈ 2.08 µM); MIC (Escherichia coli [19]): 4 µg/mL (≈ 8.32 µM); MIC (Escherichia coli [20]): 16 µg/mL (≈ 33.3 µM); MIC (Escherichia coli [10]): 0.125 µg/mL (≈ 0.26 µM); MIC (Escherichia coli [21]): 0.125 µg/mL (≈ 0.26 µM); MIC (Escherichia coli [22]): 0.125 µg/mL (≈ 0.26 µM); MIC (Escherichia coli [23]): 0.25 µg/mL (≈ 0.52 µM); MIC (Escherichia coli [9]): 0.125 µg/mL (≈ 0.26 µM); MIC (Escherichia coli [24]): 0.25 µg/mL (≈ 0.52 µM); MIC (Escherichia coli [25]): 0.125 µg/mL (≈ 0.26 µM); MIC (Escherichia coli [26]): 1 µg/mL (≈ 2.08 µM) |
| CC(C)(O/N=C(\C(=O)N[C@@H]1C(=O)N(S(=O)(=O)O)[C@@H]1CN1CCOC1=O)c1csc(N)n1)C(=O)O (stereo in doubt) | 0.5 (≈ 0.961 µM) | 0.5 (≈ 0.961 µM) | 483 | 0.5 (≈ 0.961 µM) | 0.5 to 1 (≈ 0.961 to 1.92 µM) | 1 (≈ 1.92 µM) | 2 (≈ 3.84 µM) | 2 (≈ 3.84 µM) | MIC (Escherichia coli [10]): 4 µg/mL (≈ 7.68 µM) |
| CC(C)(O/N=C(\C(=O)N[C@@H]1C(=O)N(S(=O)(=O)O)[C@@H]1Cn1nccn1)c1csc(N)n1)C(=O)O (stereo in doubt) | 1 (≈ 1.99 µM) | 0.5 (≈ 0.995 µM) | 978 | 0.5 (≈ 0.995 µM) | 0.5 (≈ 0.995 µM) | 1 (≈ 1.99 µM) | 2 (≈ 3.98 µM) | 8 (≈ 15.9 µM) |  |
| CC(C)(O/N=C(\C(=O)N[C@@H]1C(=O)N(S(=O)(=O)O)[C@@H]1CN1CCCC1=O)c1csc(N)n1)C(=O)O (stereo in doubt) | 2 (≈ 3.86 µM) | 1 (≈ 1.93 µM) | > 1000 | 1 (≈ 1.93 µM) | 2 (≈ 3.86 µM) | 2 (≈ 3.86 µM) | 4 (≈ 7.71 µM) | 16 (≈ 30.9 µM) |  |
| CC(C)(O/N=C(\C(=O)N[C@@H]1C(=O)N(S(=O)(=O)O)[C@@H]1CN1CCNC1=O)c1csc(N)n1)C(=O)O (stereo in doubt) | 1 (≈ 1.92 µM) | 1 (≈ 1.92 µM) | > 1000 | 0.5 (≈ 0.962 µM) | 1 (≈ 1.92 µM) | 1 (≈ 1.92 µM) | 4 (≈ 7.7 µM) | 2 (≈ 3.85 µM) |  |
| Cc1nnn(C[C@@H]2[C@H](NC(=O)/C(=N\OC(C)(C)C(=O)O)c3csc(N)n3)C(=O)N2S(=O)(=O)O)n1 (stereo in doubt) | 8 (≈ 15.5 µM) | 2 (≈ 3.86 µM) |  | 2 (≈ 3.86 µM) | 1 (≈ 1.93 µM) | 8 (≈ 15.5 µM) | 8 (≈ 15.5 µM) | 8 (≈ 15.5 µM) |  |
| CC(C)(O/N=C(\C(=O)N[C@@H]1C(=O)N(S(=O)(=O)O)[C@@H]1CN1CCCCC1=O)c1csc(N)n1)C(=O)O (stereo in doubt) | 8 (≈ 15 µM) | 8 (≈ 15 µM) | 214 | 4 (≈ 7.51 µM) | 8 (≈ 15 µM) | 4 (≈ 7.51 µM) | 4 (≈ 7.51 µM) | 16 (≈ 30 µM) |  |

Continued, in another order:

| MIC (Escherichia coli [1]) [µg/mL] | MIC (Escherichia coli [2]) [µg/mL] | half-life [3] [h] | MIC (Escherichia coli [4]) [µg/mL] | MIC (Escherichia coli [5]) [µg/mL] | MIC (Escherichia coli [6]) [µg/mL] | MIC (Escherichia coli [7]) [µg/mL] | MIC (Escherichia coli [8]) [µg/mL] | SMILES | other results |
| --- | --- | --- | --- | --- | --- | --- | --- | --- | --- |
| 1 (≈ 2.21 µM) | 0.125 (≈ 0.276 µM) | 990 | 0.125 (≈ 0.276 µM) | 0.25 (≈ 0.551 µM) | 32 (≈ 70.6 µM) |  | 4 (≈ 8.82 µM) | CC(C)(O/N=C(/C(=O)N[C@@H]1C(=O)N(S(=O)(=O)O)[C@@H]1CF)c1csc(N)n1)C(=O)O (stereo in doubt) | MIC (Escherichia coli [9]): 0.06 µg/mL (≈ 0.132 µM) |
| 4 (≈ 7.88 µM) | 0.125 (≈ 0.246 µM) | 149 | 0.25 (≈ 0.493 µM) | 0.25 (≈ 0.493 µM) | 8 (≈ 15.8 µM) | 2 (≈ 3.94 µM) | 0.5 (≈ 0.985 µM) | CC(C)(O/N=C(\C(=O)N[C@@H]1C(=O)N(S(=O)(=O)O)[C@@H]1CNC(=O)CN)c1csc(N)n1)C(=O)O (stereo in doubt) |  |
| 4 (≈ 7.93 µM) | 2 (≈ 3.96 µM) | > 1000 | 2 (≈ 3.96 µM) | 4 (≈ 7.93 µM) | 8 (≈ 15.9 µM) | 16 (≈ 31.7 µM) | 64 (≈ 127 µM) | CC(C)(O/N=C(\C(=O)N[C@@H]1C(=O)N(S(=O)(=O)O)[C@@H]1CN1CCC1=O)c1csc(N)n1)C(=O)O (stereo in doubt) |  |
| 8 (≈ 15.3 µM) | 4 (≈ 7.67 µM) | 212 | 4 (≈ 7.67 µM) | 4 (≈ 7.67 µM) | 4 (≈ 7.67 µM) |  | 16 (≈ 30.7 µM) | CN(C[C@@H]1[C@H](NC(=O)/C(=N\OC(C)(C)C(=O)O)c2csc(N)n2)C(=O)N1S(=O)(=O)O)C(=O)CN (stereo in doubt) |  |
| 0.25 (≈ 0.537 µM) | 0.25 (≈ 0.537 µM) | 100 | 0.25 (≈ 0.537 µM) | 1 (≈ 2.15 µM) | > 32 |  | 0.5 (≈ 1.07 µM) | CC(C)(O/N=C(/C(=O)N[C@@H]1C(=O)N(OS(=O)(=O)O)C1(C)C)c1csc(N)n1)C(=O)O (stereo in doubt) | MIC (Escherichia coli [9]): 0.25 µg/mL (≈ 0.537 µM) |
